Reference: ChEMBL document CHEMBL1128753, “Synthesis and bioactivity of photolabile sirolimus (rapamycin) analogs” (Bioorg Med Chem Lett, 1995)

Experiments:
T-cell = test: Tested for inhibition of T cell proliferation in the co-mitogen stimulated proliferation assay; type: functional, cell-based; conditions: Homo sapiens
Mus musculus = test: Mean Survival time of the graft was evaluated in murine skin allograft transplantation assay upon intraperitoneal administration of 4 mg/kg dose; type: functional

Compound | IC50 (T-cell) | MST (Mus musculus)
CO[C@H]1C[C@@H]2CC[C@@H](C)[C@@](O)(O2)C(=O)C(=O)N2CCCC[C@H]2C(=O)O[C@H]([C@H](C)C[C@@H]2CC[C@@H](O)[C@H](OC)C2)CC(=O)[C@H](C)/C=C(\C)[C@@H](OC(=O)CCCCCNc2ccc(N=[N+]=[N-])cc2[N+](=O)[O-])[C@@H](OC)C(=O)[C@H](C)C[C@H](C)/C=C/C=C/C=C/1C | 7.8 nM | 
CO[C@H]1C[C@@H]2CC[C@@H](C)[C@@](O)(O2)C(=O)C(=O)N2CCCC[C@H]2C(=O)O[C@H]([C@H](C)C[C@@H]2CC[C@@H](OC(=O)CCCCCCCNc3ccc(N=[N+]=[N-])cc3[N+](=O)[O-])[C@H](OC)C2)CC(=O)[C@H](C)/C=C(\C)[C@@H](O)[C@@H](OC)C(=O)[C@H](C)C[C@H](C)/C=C/C=C/C=C/1C | 10.2 nM | 
CO[C@H]1C[C@@H]2CC[C@@H](C)[C@@](O)(O2)C(=O)C(=O)N2CCCC[C@H]2C(=O)O[C@H]([C@H](C)C[C@@H]2CC[C@@H](OC(=O)Cc3ccc(N=[N+]=[N-])cc3)[C@H](OC)C2)CC(=O)[C@H](C)/C=C(\C)[C@@H](O)[C@@H](OC)C(=O)[C@H](C)C[C@H](C)/C=C/C=C/C=C/1C | 1 nM | 10.7 days
CO[C@H]1C[C@@H]2CC[C@@H](C)[C@@](O)(O2)C(=O)C(=O)N2CCCC[C@H]2C(=O)O[C@H]([C@H](C)C[C@@H]2CC[C@@H](OC(=O)Cc3ccc(N=[N+]=[N-])c(I)c3)[C@H](OC)C2)CC(=O)[C@H](C)/C=C(\C)[C@@H](O)[C@@H](OC)C(=O)[C@H](C)C[C@H](C)/C=C/C=C/C=C/1C | 3 nM | 12.7 days
CO[C@H]1C[C@@H]2CC[C@@H](C)[C@@](O)(O2)C(=O)C(=O)N2CCCC[C@H]2C(=O)O[C@H]([C@H](C)C[C@@H]2CC[C@@H](O)[C@H](OC)C2)CC(=O)[C@H](C)/C=C(\C)[C@@H](OC(=O)Cc2ccc(N=[N+]=[N-])cc2)[C@@H](OC)C(=O)[C@H](C)C[C@H](C)/C=C/C=C/C=C/1C | 5.8 nM | 
CO[C@H]1C[C@@H]2CC[C@@H](C)[C@@](O)(O2)C(=O)C(=O)N2CCCC[C@H]2C(=O)O[C@H]([C@H](C)C[C@@H]2CC[C@@H](O)[C@H](OC)C2)CC(=O)[C@H](C)/C=C(\C)[C@@H](OC(=O)CCCCCCCNc2ccc(N=[N+]=[N-])cc2[N+](=O)[O-])[C@@H](OC)C(=O)[C@H](C)C[C@H](C)/C=C/C=C/C=C/1C | 10.5 nM | 
CO[C@H]1C[C@@H]2CC[C@@H](C)[C@@](O)(O2)C(=O)C(=O)N2CCCC[C@H]2C(=O)O[C@H]([C@H](C)C[C@@H]2CC[C@@H](OC(=O)CCCCCNc3ccc(N=[N+]=[N-])cc3[N+](=O)[O-])[C@H](OC)C2)CC(=O)[C@H](C)/C=C(\C)[C@@H](O)[C@@H](OC)C(=O)[C@H](C)C[C@H](C)/C=C/C=C/C=C/1C | 2.5 nM | 
CO[C@H]1C[C@@H]2CC[C@@H](C)[C@@](O)(O2)C(=O)C(=O)N2CCCC[C@H]2C(=O)O[C@H]([C@H](C)C[C@@H]2CC[C@@H](O)[C@H](OC)C2)CC(=O)[C@H](C)/C=C(\C)[C@@H](O)[C@@H](OC)C(=O)[C@H](C)C[C@H](C)/C=C/C=C/C=C/1C [SIROLIMUS] | 9.8 nM | 12.01 days
